Holding throughout (assay): relative viability (nuclei count vs DMSO), 5 days (fraction); higher = more cells survive
Compound in the assay “JZL-184 + Phenformin”: C1CN(CCC1C(C2=CC3=C(C=C2)OCO3)(C4=CC5=C(C=C4)OCO5)O)C(=O)OC6=CC=C(C=C6)[N+](=O)[O-] [JZL-184] + N=C(N)NC(=N)NCCc1ccccc1 [Phenformin] (partner 250 µM)
In outline:
(§1)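 Medians of duplicate plates are given as relative viability. That measure is the nuclei count in treated wells divided by the count in vehicle wells. Counts were taken on 4× images of lung cancer cell lines in 1536-well plates, 5 days after pin-tool dosing the day after seeding with one drug alone or a fixed anchor-drug dose plus five library-drug doses (not always all listed) in √10 steps.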

Compound in the assay “JZL-184 + AZD7762”: C1CN(CCC1C(C2=CC3=C(C=C2)OCO3)(C4=CC5=C(C=C4)OCO5)O)C(=O)OC6=CC=C(C=C6)[N+](=O)[O-] [JZL-184] + NC(=O)Nc1cc(-c2cccc(F)c2)sc1C(=O)N[C@H]1CCCNC1 [AZD7762] (partner 0.2 µM)
In outline:
as §1

Compound in the assay “JZL-184 + Linsitinib”: C1CN(CCC1C(C2=CC3=C(C=C2)OCO3)(C4=CC5=C(C=C4)OCO5)O)C(=O)OC6=CC=C(C=C6)[N+](=O)[O-] [JZL-184] + C[C@]1(O)C[C@@H](c2nc(-c3ccc4ccc(-c5ccccc5)nc4c3)c3c(N)nccn32)C1 [Linsitinib] (partner 1 µM)
In outline:
as §1

Compound in the assay “JZL-184 + Bortezomib”: C1CN(CCC1C(C2=CC3=C(C=C2)OCO3)(C4=CC5=C(C=C4)OCO5)O)C(=O)OC6=CC=C(C=C6)[N+](=O)[O-] [JZL-184] + CC(C)C[C@H](NC(=O)[C@H](Cc1ccccc1)NC(=O)c1cnccn1)B(O)O [Bortezomib] (partner 0.002 µM)
An outline of the steps:
as §1

Compound in the assay “JZL-184 + Decitabine”: C1CN(CCC1C(C2=CC3=C(C=C2)OCO3)(C4=CC5=C(C=C4)OCO5)O)C(=O)OC6=CC=C(C=C6)[N+](=O)[O-] [JZL-184] + Nc1ncn([C@H]2C[C@H](O)[C@@H](CO)O2)c(=O)n1 [Decitabine] (partner 2 µM)
An outline of the steps:
as §1

Regarding NCI-H2405, the relative viability amounted to 0.336 with JZL-184 + Phenformin (first compound 0.04 µM); 0.398 with JZL-184 + Phenformin (first compound 0.4 µM); 0.419 with JZL-184 + Phenformin (first compound 1.265 µM); 0.392 with JZL-184 + Phenformin (first compound 4 µM); 0.786 with JZL-184 + AZD7762 (first compound 0.04 µM); 0.533 in the assay with JZL-184 + AZD7762 (first compound 0.4 µM). The relative viability amounted to 0.797 with JZL-184 + AZD7762 (first compound 1.265 µM); 0.663 with JZL-184 + AZD7762 (first compound 4 µM); 0.806 with JZL-184 + Linsitinib (first compound 0.04 µM); 0.895 with JZL-184 + Linsitinib (first compound 0.4 µM); 1.09 with JZL-184 + Linsitinib (first compound 1.265 µM); 0.986 with JZL-184 + Linsitinib (first compound 4 µM). The relative viability in the assay with JZL-184 + Bortezomib (first compound 0.04 µM) stood at 1.05; with JZL-184 + Bortezomib (first compound 0.4 µM) it was 0.943; with JZL-184 + Bortezomib (first compound 1.265 µM), 1.06; with JZL-184 + Bortezomib (first compound 4 µM) it was 0.769; with JZL-184 + Decitabine (first compound 0.04 µM), 0.792; with JZL-184 + Decitabine (first compound 0.4 µM), 0.694. Also, the relative viability with JZL-184 + Decitabine (first compound 1.265 µM) is 0.738; with JZL-184 + Decitabine (first compound 4 µM) it was 0.767.

Regarding NCI-H3122, the relative viability turned out to be 0.38 in the assay with JZL-184 + Phenformin (first compound 0.04 µM); 0.387 with JZL-184 + Phenformin (first compound 0.4 µM); 0.376 with JZL-184 + Phenformin (first compound 1.265 µM); 0.39 in the assay with JZL-184 + Phenformin (first compound 4 µM); 1.05 in the assay with JZL-184 + AZD7762 (first compound 0.04 µM); 0.866 with JZL-184 + AZD7762 (first compound 0.4 µM). For the same cell line, the relative viability came to 0.99 with JZL-184 + AZD7762 (first compound 1.265 µM); 1.02 with JZL-184 + AZD7762 (first compound 4 µM); 1.03 with JZL-184 + Linsitinib (first compound 0.04 µM); 0.949 in the assay with JZL-184 + Linsitinib (first compound 0.4 µM); 1.03 in the assay with JZL-184 + Linsitinib (first compound 1.265 µM); 0.971 in the assay with JZL-184 + Linsitinib (first compound 4 µM). Also, the relative viability came to 1.01 with JZL-184 + Bortezomib (first compound 0.04 µM); 0.93 in the assay with JZL-184 + Bortezomib (first compound 0.4 µM); 0.982 with JZL-184 + Bortezomib (first compound 1.265 µM); 1.03 with JZL-184 + Bortezomib (first compound 4 µM); 0.411 with JZL-184 + Decitabine (first compound 0.04 µM); 0.458 in the assay with JZL-184 + Decitabine (first compound 0.4 µM). Moreover, the relative viability in the assay with JZL-184 + Decitabine (first compound 1.265 µM) was 0.375; with JZL-184 + Decitabine (first compound 4 µM), 0.433.

Take PC-3 [JPC-3]: the relative viability is 0.45 with JZL-184 + Phenformin (first compound 0.04 µM); 0.464 with JZL-184 + Phenformin (first compound 0.4 µM); 0.495 in the assay with JZL-184 + Phenformin (first compound 1.265 µM); 0.487 with JZL-184 + Phenformin (first compound 4 µM); 0.773 with JZL-184 + AZD7762 (first compound 0.04 µM); 0.71 in the assay with JZL-184 + AZD7762 (first compound 0.4 µM). Moreover, the relative viability was found to be 0.94 with JZL-184 + AZD7762 (first compound 1.265 µM); 0.8 with JZL-184 + AZD7762 (first compound 4 µM); 0.955 in the assay with JZL-184 + Linsitinib (first compound 0.04 µM); 0.936 in the assay with JZL-184 + Linsitinib (first compound 0.4 µM); 0.973 with JZL-184 + Linsitinib (first compound 1.265 µM); 0.905 in the assay with JZL-184 + Linsitinib (first compound 4 µM). In addition, the relative viability in the assay with JZL-184 + Bortezomib (first compound 0.04 µM) was 0.988; with JZL-184 + Bortezomib (first compound 0.4 µM), 0.895; with JZL-184 + Bortezomib (first compound 1.265 µM), 0.835; in the assay with JZL-184 + Bortezomib (first compound 4 µM), 0.801; in the assay with JZL-184 + Decitabine (first compound 0.04 µM) it was 1.02; in the assay with JZL-184 + Decitabine (first compound 0.4 µM), 0.825. In addition, the values for the relative viability with JZL-184 + Decitabine (first compound 1.265 µM) and with JZL-184 + Decitabine (first compound 4 µM) were 0.874 and 0.822, respectively.

For PC-14, the relative viability was found to be 0.756 with JZL-184 + Phenformin (first compound 0.04 µM); 0.473 in the assay with JZL-184 + Phenformin (first compound 0.4 µM); 0.72 in the assay with JZL-184 + Phenformin (first compound 1.265 µM); 0.504 with JZL-184 + Phenformin (first compound 4 µM); 0.391 with JZL-184 + AZD7762 (first compound 0.04 µM); 0.337 in the assay with JZL-184 + AZD7762 (first compound 0.4 µM). Further, the relative viability in the assay with JZL-184 + AZD7762 (first compound 1.265 µM) worked out at 0.387; in the assay with JZL-184 + AZD7762 (first compound 4 µM), 0.321; with JZL-184 + Linsitinib (first compound 0.04 µM), 1.05; with JZL-184 + Linsitinib (first compound 0.4 µM), 0.965; in the assay with JZL-184 + Linsitinib (first compound 1.265 µM), 0.95; with JZL-184 + Linsitinib (first compound 4 µM), 0.942. Further, the relative viability with JZL-184 + Bortezomib (first compound 0.04 µM) is 0.808; with JZL-184 + Bortezomib (first compound 0.4 µM) it was 0.972; with JZL-184 + Bortezomib (first compound 1.265 µM), 0.781; in the assay with JZL-184 + Bortezomib (first compound 4 µM), 0.77; with JZL-184 + Decitabine (first compound 0.04 µM), 0.343; with JZL-184 + Decitabine (first compound 0.4 µM), 0.199. Besides, the figures for the relative viability in the assay with JZL-184 + Decitabine (first compound 1.265 µM) and with JZL-184 + Decitabine (first compound 4 µM) were 0.198 and 0.241, respectively.

On to RERF-LC-KJ, for which the relative viability in the assay with JZL-184 + Phenformin (first compound 0.04 µM) turned out to be 0.479; with JZL-184 + Phenformin (first compound 0.4 µM) it was 0.357; with JZL-184 + Phenformin (first compound 1.265 µM), 0.382; in the assay with JZL-184 + Phenformin (first compound 4 µM), 0.371; with JZL-184 + AZD7762 (first compound 0.04 µM), 1.11; in the assay with JZL-184 + AZD7762 (first compound 0.4 µM), 0.963. Also, the relative viability with JZL-184 + AZD7762 (first compound 1.265 µM) turned out to be 0.895; with JZL-184 + AZD7762 (first compound 4 µM) it was 1; with JZL-184 + Linsitinib (first compound 0.04 µM) it was 0.874; with JZL-184 + Linsitinib (first compound 0.4 µM) it was 0.854; with JZL-184 + Linsitinib (first compound 1.265 µM), 0.867; with JZL-184 + Linsitinib (first compound 4 µM), 0.873. Besides, the relative viability came to 1.15 with JZL-184 + Bortezomib (first compound 0.04 µM); 0.96 with JZL-184 + Bortezomib (first compound 0.4 µM); 1.11 in the assay with JZL-184 + Bortezomib (first compound 1.265 µM); 1.04 with JZL-184 + Bortezomib (first compound 4 µM); 0.854 in the assay with JZL-184 + Decitabine (first compound 0.04 µM); 0.706 with JZL-184 + Decitabine (first compound 0.4 µM). Further, the relative viability with JZL-184 + Decitabine (first compound 1.265 µM) turned out to be 0.808; with JZL-184 + Decitabine (first compound 4 µM) it was 0.56.

The record behind these values is the supplement of paper PMC10307832.
